Structures can show the parent of a compound that is named as a salt.
biological target: T1, human HSL (Homo sapiens, UniProt Q05469); test: Human Hormone-Sensitive Lipase (HSL) enzyme inhibition assay (colorimetric, DMPT substrate); type: biochemical; conditions: read-out: HSL hum IC50
T1 construct: generate a full length human HSL ORF with a 3′-His6 tag; His6 (C); made in house; host or cells: High 5 insect cells (baculovirus, pFast-BAC)
T1 sequence (Q05469 1-1076): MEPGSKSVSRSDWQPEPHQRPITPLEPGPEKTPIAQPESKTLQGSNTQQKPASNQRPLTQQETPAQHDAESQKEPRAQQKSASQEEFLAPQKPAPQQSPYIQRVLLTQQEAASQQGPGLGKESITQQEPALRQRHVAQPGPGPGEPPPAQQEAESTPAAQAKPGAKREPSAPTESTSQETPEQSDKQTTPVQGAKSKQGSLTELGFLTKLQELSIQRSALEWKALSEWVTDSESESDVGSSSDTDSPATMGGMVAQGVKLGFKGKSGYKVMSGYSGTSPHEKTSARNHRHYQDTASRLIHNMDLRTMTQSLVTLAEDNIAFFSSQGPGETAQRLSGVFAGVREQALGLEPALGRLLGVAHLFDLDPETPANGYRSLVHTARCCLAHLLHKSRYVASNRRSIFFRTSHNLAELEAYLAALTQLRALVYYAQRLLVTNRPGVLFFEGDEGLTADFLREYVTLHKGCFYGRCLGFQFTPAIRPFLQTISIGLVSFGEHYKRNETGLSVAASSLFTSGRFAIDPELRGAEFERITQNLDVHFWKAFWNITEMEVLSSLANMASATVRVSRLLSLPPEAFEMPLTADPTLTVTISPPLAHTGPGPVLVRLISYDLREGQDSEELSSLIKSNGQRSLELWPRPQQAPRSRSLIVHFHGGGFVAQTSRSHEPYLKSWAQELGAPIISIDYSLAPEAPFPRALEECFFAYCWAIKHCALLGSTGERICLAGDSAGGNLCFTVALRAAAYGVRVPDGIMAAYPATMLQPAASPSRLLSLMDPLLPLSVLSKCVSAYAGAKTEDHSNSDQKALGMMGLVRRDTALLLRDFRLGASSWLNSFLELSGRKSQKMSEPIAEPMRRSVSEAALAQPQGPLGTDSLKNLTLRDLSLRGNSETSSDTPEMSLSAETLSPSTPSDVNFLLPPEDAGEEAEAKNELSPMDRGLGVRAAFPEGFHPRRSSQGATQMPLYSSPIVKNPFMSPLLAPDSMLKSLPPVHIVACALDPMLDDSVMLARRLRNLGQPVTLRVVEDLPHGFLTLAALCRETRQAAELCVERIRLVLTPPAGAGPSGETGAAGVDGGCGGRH
Procedure: Production of Human Full Length Hormone Sensitive Lipase-His^6
1) Cloning: cDNA was prepared from commercial human brain polyA+ RNA and used as a template in overlapping PCR to generate a full length human HSL ORF with a 3′-His6 tag. This full length insert was cloned into the pFast-BAC vector and the DNA-sequence of several single clones was verified. DNA from a correct full length clone with the 3′His6 tag was used to transform the E. coli strain DH10BAC. Resulting bacmid DNA was used to generate a titered baculovirus stock for protein generation. The sequence of the encoded HSL conforms to Swissprot entry Q05469, with the additional C-terminal His6-tag.
2) Protein purification: Culture: 5.5 L, High 5 cells expressing human full length HSL-His^6, 48 hr., containing 25 μM E-64. Cell count: […], 90% viable.
Cells were thawed. On ice, cells were suspended in Base Buffer containing 10% glycerol, 25 mM Tris-Cl, 300 mM NaCl, 10 mM imidazole, 10 mM 2-mercaptoethanol, 2 μg pepstatin/ml, 2 μg leupeptin/ml, 2 μg antipain/ml, pH 8.0 at 4° C. in a final volume of 475 ml with 3.75×10^7 cells/ml. […] was done at 3×30 sec., Lubrol PX was added to 0.2% final concentration followed by stirring for 15 min. at 4° C. and centrifugation at 25 k×g, 60 min., 4° C. Soluble proteins were mixed with 60 ml of pre-washed and equilibrated Ni-NTA Agarose (Qiagen 30210) followed by tumbling end-over-end, 45 min., 4° C., centrifugation 1000 rpm 5 min and letting resin settle 5 min. Supernatant was removed, the resin washed in the centrifuge vessel using 5 volumes of Base Buffer containing 0.2% Lubrol PX. Centrifugation was done again, then the supernatant discarded. The resin was poured onto a 0.8 μm membrane in a disposable filter unit (Nalge 450-0080), and washed with 5 volumes of Base Buffer containing 0.2% Lubrol PX. It was then washed with 30 volumes of Base Buffer containing 60 mM imidazole pH 7.5 at 4° C. The protein was eluted with 5 volumes of 25 mM Tris-Cl, 300 mM NaCl, 200 mM imidazole, 10 mM 2-mercaptoethanol, pH 7.5 at 4° C. by tumbling resin with buffer end-over-end, 30 min., 4° C. The resin was captured on a 0.2 μm membrane disposable filter unit (Millipore SCGP U02 RE) and the elute collected in the reservoir. The elute was concentrated using a 30 k MWCO centrifugal filter device (Sartorius Vivascience Vivacell 100, VC1022), to 20 ml. It was then dialyzed overnight at 4° C., two times against 2 L of 10% glycerol, 25 mM Tris-Cl, 300 mM NaCl, 0.2 mM EDTA, 0.2 mM DTT, pH 7.5 at 4° C. The protein was filtered using a 0.22 μm disposable filter unit (Millipore SCGP00525). The protein concentration was calculated from absorbance at 280 nm, using 280=0.67 cm-1 mg-1. Yield was 235 mg, total. The protein was stored at −80° C. Human Hormone-Sensitive Lipase (HSL) enzyme inhibition assay:
HSL enzyme activity was measured by a colorimetric assay using 2,3-dimercapto-1-propanol tributyrate (Aldrich, St. Louis, Mo.) as a substrate. Typically, 1.5 mM 2,3-dimercapto-1-propanol tributyrate (DMPT) in 100 mM MOPS, pH 7.2, 0.2 mg/ml fatty acid-free BSA was prepared by sonication at 4° C. to homogenous suspension. Test compounds (2 mM stock in DMSO) were diluted 3 fold in series in DMSO. Compound solutions were diluted 24 fold in 1.5 mM DMPT containing solution and 18 ul per well was added to 384-well microplates (Corning Costar). Twelve microliters per well of human HSL (15 ug/ml) was added and the reaction mixture was incubated at 37° C. for 20 minutes. Six microliters of 12 mM dithio-bis-(2-nitrobenzoic acid) (DTNB) in DMSO plus 1.2% SDS and 0.6% Triton X-100 were added and the mixture was incubated at room temperature for 15 minutes. Product production was monitored by reading absorbance at 405 nm on an Envision Reader (PerkinElmer Life and Analytical Sciences, Shelton, Conn.).

IC50 | SMILES
130 nM | CC(C)c1ccc(NC(=O)C2(N)CCN(Cc3ccccc3)CC2)cc1 [Example 122, 4-Amino-1-benzyl-piperidine-4-carboxylic acid (4-isopropyl-phenyl)-amide]
610 nM | CCc1ccc(NC(=O)C2(N)CCN(S(=O)(=O)c3ccccc3S(C)(=O)=O)CC2)cc1 [Example 136, 4-Amino-1-(2-methanesulfonyl-benzenesulfonyl)-piperidine-4-carboxylic acid (4-ethyl-phenyl)-amide]
210 nM | CC(C)c1ccc(NC(=O)C2(N)CCN(Cc3ccccc3C(F)(F)F)CC2)cc1 [Example 114, 4-Amino-1-(2-trifluoromethyl-benzyl)-piperidine-4-carboxylic acid (4-isopropyl-phenyl)-amide; hydrochloride]
230 nM | CC(C)c1ccc(NC(=O)C2(N)CCN(C(=O)c3ccccc3Cl)CC2)cc1 [Example 124, 4-Amino-1-(2-chloro-benzoyl)-piperidine-4-carboxylic acid (4-isopropyl-phenyl)-amide]
130 nM | Cc1ccc(S(=O)(=O)N2CCC(N)(C(=O)Nc3ccc(OC(C)C)cc3)CC2)cc1 [Example 79, 4-Amino-1-(toluene-4-sulfonyl)-piperidine-4-carboxylic acid (4-isopropoxy-phenyl)-amide; hydrochloride]
860 nM | Cc1ccc(S(=O)(=O)N2CCC(O)(C(=O)Nc3ccc(OC(C)C)cc3)CC2)cc1 [Example 12, 4-Hydroxy-1-(toluene-4-sulfonyl)-piperidine-4-carboxylic acid (4-isopropoxy-phenyl)-amide]
210 nM | CC(C)(C)c1ccc(NC(=O)C2(O)CCN(C(=O)c3ccc(F)cc3)CC2)cc1 [Example 18, 1-(4-Fluoro-benzoyl)-4-hydroxy-piperidine-4-carboxylic acid (4-tert-butyl-phenyl)-amide]
210 nM | CC(C)c1ccc(NC(=O)C2(N)CCN(C(=O)Nc3ccc(F)cc3)CC2)cc1 [Example 106, 4-Amino-piperidine-1,4-dicarboxylic acid 1-[(4-fluoro-phenyl)-amide]-4-[(4-isopropyl-phenyl)-amide]; hydrochloride]
460 nM | CC(C)c1ccc(NC(=O)C2(O)CCN(Cc3ccccc3)CC2)cc1 [Example 1, 1-Benzyl-4-hydroxy-piperidine-4-carboxylic acid (4-isopropyl-phenyl)-amide]
140 nM | CC(C)(C)c1ccc(NC(=O)C2(N)CCN(C(=O)Nc3ccc(OC(F)(F)F)cc3)CC2)cc1 [Example 86, 4-Amino-piperidine-1,4-dicarboxylic acid 4-[(4-tert-butyl-phenyl)-amide]1-[(4-trifluoromethoxy-phenyl)-amide]; hydrochloride]
110 nM | NC1(C(=O)Nc2ccc(OCC(F)(F)F)cc2)CCN(S(=O)(=O)c2ccccc2Cl)CC1 [Example 105, 4-Amino-1-(2-chloro-benzenesulfonyl)-piperidine-4-carboxylic acid [4-(2,2,2-trifluoro-ethoxy)-phenyl]-amide]
240 nM | CCc1ccc(NC(=O)C2(N)CCN(S(=O)(=O)c3c(Cl)cccc3Cl)CC2)cc1 [Example 150, 4-Amino-1-(2,6-dichloro-benzenesulfonyl)-piperidine-4-carboxylic acid (4-ethyl-phenyl)-amide]
90 nM | CN(C(=O)C1(O)CCN(S(=O)(=O)c2ccccc2F)CC1)c1ccc(OC(F)(F)F)cc1 [Example 70, 1-(2-Fluoro-benzenesulfonyl)-4-hydroxy-piperidine-4-carboxylic acid methyl-(4-trifluoromethoxy-phenyl)-amide]
480 nM | CC(C)CCC(=O)N1CCC(N)(C(=O)Nc2ccc(C(C)C)cc2)CC1 [Example 129, 4-Amino-1-(4-methyl-pentanoyl)-piperidine-4-carboxylic acid (4-isopropyl-phenyl)-amide]
310 nM | CCc1ccc(NC(=O)C2(N)CCN(S(=O)(=O)c3ccc(OC(F)(F)F)cc3)CC2)cc1 [Example 138, 4-Amino-1-(4-trifluoromethoxy-benzenesulfonyl)-piperidine-4-carboxylic acid (4-ethyl-phenyl)-amide]
100 nM | CNC1(C(=O)Nc2ccc(OC(F)(F)F)cc2)CCN(S(=O)(=O)c2ccc(C)cc2)CC1 [Example 160, 4-Methylamino-1-(toluene-4-sulfonyl)-piperidine-4-carboxylic acid (4-trifluoromethoxy-phenyl)-amide]
80 nM | CC(C)c1ccc(NC(=O)C2(N)CCN(Cc3ccccc3F)CC2)cc1 [Example 109, 4-Amino-1-(2-fluoro-benzyl)-piperidine-4-carboxylic acid (4-isopropyl-phenyl)-amide; hydrochloride]
860 nM | CCc1cccc(NC(=O)C2(N)CCN(S(=O)(=O)c3ccccc3Cl)CC2)c1 [Example 92, 4-Amino-1-(2-chloro-benzenesulfonyl)-piperidine-4-carboxylic acid (3-ethyl-phenyl)-amide]
190 nM | CC(C)c1ccc(NC(=O)C2(N)CCN(S(=O)(=O)c3ccccc3Cl)CC2)cn1 [Example 101, 4-Amino-1-(2-chloro-benzenesulfonyl)-piperidine-4-carboxylic acid (6-isopropyl-pyridin-3-yl)-amide]
600 nM | CC(C)(C)c1ccc(NC(=O)C2(O)CCN(C(=O)c3ccc(F)cc3C(F)(F)F)CC2)cc1 [Example 42, 1-(4-Fluoro-2-trifluoromethyl-benzoyl)-4-hydroxy-piperidine-4-carboxylic acid (4-tert-butyl-phenyl)-amide]
140 nM | C=Cc1ccc(NC(=O)C2(N)CCN(S(=O)(=O)c3ccccc3Cl)CC2)cc1 [Example 100, 4-Amino-1-(2-chloro-benzenesulfonyl)-piperidine-4-carboxylic acid (4-vinyl-phenyl)-amide]

— US8399676B2, “Piperidine derivatives” (Hoffman-La Roche Inc., priority 2009, dated 2013)
